Values quoted from earlier work as cited in patent EP2610673B1, “Method for manufacturing lithographic printing plates” (FUJIFILM Corporation, priority 2011, dated 2013).

| Compound | solubility in 20°C water [g/100 mL] |
| --- | --- |
| CCC(C)CO (stereo not shown) [2-methyl-1-butanol] | 3.0 |
| CC(C)C(C)O (stereo not shown) [3-methyl-2-butanol] | 5.6 |
| CCCCCO [Example 1-pentanol, 1-pentanol] | 2.7 |
| OCc1ccccc1 [benzyl alcohol] | 4.0 |
| CCCCOCCOCCOC(C)=O [diethylene glycol monobutyl ether acetate] | 6.5 |
| OCCOc1ccccc1 [ethylene glycol monophenyl ether] | 2.7 |
| CC(=O)OC(C)C [isopropyl acetate] | 4.3 |
| CC(C)(C)CO [neopentyl alcohol] | 3.5 |
| CCCOC(C)=O [propyl acetate] | 1.6 |

Further lines, results first:

| solubility in 20°C water [g/100 mL] | Compound |
| --- | --- |
| 2.7 | CC(C)CCO [3-methyl-1-butanol] |
| 2.0 | CC(C)CC(C)O (stereo not shown) [4-methyl-2-pentanol] |
| 4.5 | CCCC(C)O (stereo not shown) [Example 2-pentanol, 2-pentanol] |
| 4.0 | CCCC(C)=O [Example 2-pentanone, 2-pentanone] |
| 5.2 | CCC(O)CC [Example 3-pentanol, 3-pentanol] |
| 1.7 | CCC(=O)CC [diethyl ketone] |
| 4.4 | CCCCOCC(C)O (stereo not shown) [propylene glycol mono-n-butyl ether] |
